In ChEMBL document CHEMBL5518240 (J Med Chem, 2024):

How the values were obtained:
[1] = target: T1, Protein cereblon/CREB-binding protein (Homo sapiens, UniProt Q92793+Q96SW2); experiment: PROTAC activity at CBP/CRBN in human VCaP cells assessed as protein degradation incubated for 4 hrs by Western blot analysis; assay type: cell-based
[2] = target: T1, Protein cereblon/CREB-binding protein; experiment: PROTAC activity at CBP/CRBN in human VCaP cells assessed as maximal protein degradation at 1 uM incubated for 4 hrs by Western blot analysis relative to control; assay type: cell-based
Target sequence in this assay (Q92793 2-2442 limits assumed): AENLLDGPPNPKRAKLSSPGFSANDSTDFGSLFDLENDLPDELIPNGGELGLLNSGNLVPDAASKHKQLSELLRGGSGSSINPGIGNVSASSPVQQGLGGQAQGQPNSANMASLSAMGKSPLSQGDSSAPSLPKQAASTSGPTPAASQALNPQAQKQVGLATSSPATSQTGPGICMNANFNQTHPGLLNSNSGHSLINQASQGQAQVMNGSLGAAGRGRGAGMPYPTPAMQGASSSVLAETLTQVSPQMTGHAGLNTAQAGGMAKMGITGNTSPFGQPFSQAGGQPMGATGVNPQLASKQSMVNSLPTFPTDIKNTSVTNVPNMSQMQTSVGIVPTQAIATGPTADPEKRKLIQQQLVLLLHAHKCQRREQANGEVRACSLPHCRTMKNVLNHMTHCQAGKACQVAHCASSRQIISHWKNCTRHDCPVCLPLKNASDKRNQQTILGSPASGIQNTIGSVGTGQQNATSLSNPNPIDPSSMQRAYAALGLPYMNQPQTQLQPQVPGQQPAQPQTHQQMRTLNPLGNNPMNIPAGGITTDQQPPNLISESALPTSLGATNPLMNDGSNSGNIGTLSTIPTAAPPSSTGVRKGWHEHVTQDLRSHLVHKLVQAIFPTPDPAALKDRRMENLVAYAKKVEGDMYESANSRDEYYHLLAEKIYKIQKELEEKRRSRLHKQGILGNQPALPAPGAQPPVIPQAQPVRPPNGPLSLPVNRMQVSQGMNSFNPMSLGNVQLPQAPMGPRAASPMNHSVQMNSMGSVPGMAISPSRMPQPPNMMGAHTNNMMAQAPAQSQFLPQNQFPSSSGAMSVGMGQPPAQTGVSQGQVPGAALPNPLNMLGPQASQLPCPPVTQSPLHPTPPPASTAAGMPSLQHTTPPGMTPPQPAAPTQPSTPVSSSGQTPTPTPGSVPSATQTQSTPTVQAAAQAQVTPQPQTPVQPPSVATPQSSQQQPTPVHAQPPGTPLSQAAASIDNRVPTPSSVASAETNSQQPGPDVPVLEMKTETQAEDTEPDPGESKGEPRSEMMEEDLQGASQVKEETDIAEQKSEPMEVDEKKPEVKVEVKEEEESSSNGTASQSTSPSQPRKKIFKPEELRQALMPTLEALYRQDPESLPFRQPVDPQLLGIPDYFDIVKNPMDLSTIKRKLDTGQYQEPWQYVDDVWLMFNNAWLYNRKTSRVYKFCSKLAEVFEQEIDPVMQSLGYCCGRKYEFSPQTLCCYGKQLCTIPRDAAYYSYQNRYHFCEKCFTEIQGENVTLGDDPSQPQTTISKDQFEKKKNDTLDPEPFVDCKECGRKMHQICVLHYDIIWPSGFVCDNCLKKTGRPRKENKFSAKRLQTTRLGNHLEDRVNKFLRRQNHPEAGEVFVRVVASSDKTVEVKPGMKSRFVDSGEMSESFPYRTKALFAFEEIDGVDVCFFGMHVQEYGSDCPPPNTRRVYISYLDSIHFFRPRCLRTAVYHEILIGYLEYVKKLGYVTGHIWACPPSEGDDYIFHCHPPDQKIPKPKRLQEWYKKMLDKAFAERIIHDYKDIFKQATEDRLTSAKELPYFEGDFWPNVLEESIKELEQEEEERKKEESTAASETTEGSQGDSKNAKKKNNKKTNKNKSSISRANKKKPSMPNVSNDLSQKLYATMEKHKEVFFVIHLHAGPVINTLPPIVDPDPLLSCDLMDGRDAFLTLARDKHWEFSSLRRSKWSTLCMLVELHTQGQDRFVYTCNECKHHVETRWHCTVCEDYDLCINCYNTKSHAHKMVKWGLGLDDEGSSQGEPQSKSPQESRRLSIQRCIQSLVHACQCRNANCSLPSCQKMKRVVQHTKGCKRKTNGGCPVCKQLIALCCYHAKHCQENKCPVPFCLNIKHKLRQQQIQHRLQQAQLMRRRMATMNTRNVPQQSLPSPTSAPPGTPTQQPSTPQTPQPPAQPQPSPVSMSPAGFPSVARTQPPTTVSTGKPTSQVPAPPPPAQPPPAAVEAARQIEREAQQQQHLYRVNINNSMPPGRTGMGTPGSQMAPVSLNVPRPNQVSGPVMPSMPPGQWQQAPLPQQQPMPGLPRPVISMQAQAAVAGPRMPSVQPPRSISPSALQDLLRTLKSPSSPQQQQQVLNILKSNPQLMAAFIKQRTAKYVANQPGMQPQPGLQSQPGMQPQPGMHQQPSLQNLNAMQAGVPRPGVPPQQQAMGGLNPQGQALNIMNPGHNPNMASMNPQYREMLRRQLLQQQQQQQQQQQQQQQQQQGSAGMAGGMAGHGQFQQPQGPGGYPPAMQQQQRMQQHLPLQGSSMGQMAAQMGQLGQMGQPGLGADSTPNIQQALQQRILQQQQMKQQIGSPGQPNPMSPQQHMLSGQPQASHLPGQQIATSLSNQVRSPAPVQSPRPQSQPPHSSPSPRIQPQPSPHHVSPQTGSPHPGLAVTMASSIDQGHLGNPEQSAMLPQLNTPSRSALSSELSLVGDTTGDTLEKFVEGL
Target sequence in this assay (Q96SW2 whole entry partner): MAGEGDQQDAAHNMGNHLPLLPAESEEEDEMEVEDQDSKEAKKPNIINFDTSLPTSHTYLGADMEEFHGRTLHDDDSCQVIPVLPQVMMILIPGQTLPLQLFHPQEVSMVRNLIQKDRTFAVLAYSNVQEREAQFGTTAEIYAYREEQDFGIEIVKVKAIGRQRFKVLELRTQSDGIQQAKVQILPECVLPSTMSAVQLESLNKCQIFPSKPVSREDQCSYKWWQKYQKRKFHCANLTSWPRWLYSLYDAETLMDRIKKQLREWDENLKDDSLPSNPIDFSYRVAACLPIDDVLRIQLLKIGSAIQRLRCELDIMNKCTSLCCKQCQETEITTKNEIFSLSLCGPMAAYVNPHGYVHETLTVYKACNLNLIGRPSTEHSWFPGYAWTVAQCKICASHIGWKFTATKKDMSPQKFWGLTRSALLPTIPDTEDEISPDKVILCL

[3] = target: T2, Protein cereblon/Histone acetyltransferase p300 (Homo sapiens, UniProt Q09472+Q96SW2); experiment: PROTAC activity at p300/CRBN in human VCaP cells assessed as protein degradation incubated for 4 hrs by Western blot analysis; assay type: cell-based
[4] = target: T1, Protein cereblon/CREB-binding protein; experiment: PROTAC activity at CBP/CRBN in AR positive human VCaP cells assessed as maximal protein degradation at 0.46 nM incubated for 4 hrs by Western blot analysis relative to control; assay type: cell-based
Target sequence in this assay (Q92793 2-2442 limits assumed): as the sequence (Q92793 2-2442 limits assumed) above
Target sequence in this assay (Q96SW2 whole entry partner): as the sequence (Q96SW2 whole entry partner) above

[5] = target: T1, Protein cereblon/CREB-binding protein; experiment: PROTAC activity at CBP/CRBN in AR positive human VCaP cells assessed as maximal protein degradation at 12.3 nM incubated for 4 hrs by Western blot analysis relative to control; assay type: cell-based
Target sequence in this assay (Q92793 2-2442 limits assumed): as the sequence (Q92793 2-2442 limits assumed) above
Target sequence in this assay (Q96SW2 whole entry partner): as the sequence (Q96SW2 whole entry partner) above

[6] = target: T1, Protein cereblon/CREB-binding protein; experiment: PROTAC activity at CBP/CRBN in AR positive human VCaP cells assessed as maximal protein degradation at 333.3 nM incubated for 4 hrs by Western blot analysis relative to control; assay type: cell-based
Target sequence in this assay (Q92793 2-2442 limits assumed): as the sequence (Q92793 2-2442 limits assumed) above
Target sequence in this assay (Q96SW2 whole entry partner): as the sequence (Q96SW2 whole entry partner) above

[7] = target: T2, Protein cereblon/Histone acetyltransferase p300; experiment: PROTAC activity at p300/CRBN in AR positive human VCaP cells assessed as maximal protein degradation at 4.1 nM incubated for 4 hrs by Western blot analysis relative to control; assay type: cell-based
[8] = Half life in male ICR mouse at 1 mg/kg, iv measured upto 24 hrs by LC-MS/MS analysis; assay type: ADME, organism-based; conditions: in vivo
[9] = Clearance in male ICR mouse at 1 mg/kg, iv measured upto 24 hrs by LC-MS/MS analysis; assay type: ADME, organism-based; conditions: in vivo
[10] = Cmax in male ICR mouse at 3 mg/kg, po measured upto 24 hrs by LC-MS/MS analysis; assay type: ADME, organism-based; conditions: in vivo
[11] = AUC in male ICR mouse at 3 mg/kg, po measured upto 24 hrs by LC-MS/MS analysis; assay type: ADME, organism-based; conditions: in vivo
[12] = Oral bioavailability in male ICR mouse at 3 mg/kg measured upto 24 hrs by LC-MS/MS analysis; assay type: ADME, organism-based; conditions: in vivo
[13] = Apparent permeability coefficient across basolateral to apical side in human Caco-2 cells at 10 uM incubated for 120 mins by LC-MS/MS analysis; assay type: ADME, cell-based; conditions: caco-2, 2 h
[14] = target: T1, Protein cereblon/CREB-binding protein; experiment: PROTAC activity at CBP/CRBN in human LNCaP cells assessed as protein degradation incubated for 4 hrs by Western blot analysis; assay type: cell-based
[15] = target: T2, Protein cereblon/Histone acetyltransferase p300; experiment: PROTAC activity at p300/CRBN in human LNCaP cells assessed as protein degradation incubated for 4 hrs by Western blot analysis; assay type: cell-based
[16] = target: T2, Protein cereblon/Histone acetyltransferase p300; experiment: PROTAC activity at p300/CRBN in human LNCaP cells assessed as maximal protein degradation at 1 uM incubated for 4 hrs by Western blot analysis relative to control; assay type: cell-based
[17] = target: T2, Protein cereblon/Histone acetyltransferase p300; experiment: PROTAC activity at p300/CRBN in human 22Rv1 cells assessed as maximal protein degradation at 1 uM incubated for 4 hrs by Western blot analysis relative to control; assay type: cell-based
[18] = system: VCaP; experiment: Antiproliferative activity against AR positive human VCaP cells assessed inhibition of cell growth measured after 4 days by CellTiter-Glo Luminescent cell viability assay; assay type: functional, cell-based; conditions: 96 h
[19] = system: CWR22R; experiment: Antiproliferative activity against AR positive human 22Rv1 cells assessed inhibition of cell growth measured after 4 days by CellTiter-Glo Luminescent cell viability assay; assay type: functional, cell-based; conditions: 22Rv1, 96 h
[20] = system: CWR22R; experiment: Potency index, ratio of GNE-049 IC50 to test compound IC50 for antiproliferative activity against AR positive human 22Rv1 cells assessed inhibition of cell growth measured after 4 days by CellTiter-Glo Luminescent cell viability assay; assay type: functional; conditions: time 4 day
[21] = system: LNCaP; experiment: Potency index, ratio of GNE-049 IC50 to test compound IC50 for antiproliferative activity against AR positive human LNCaP cells assessed inhibition of cell growth measured after 4 days by CellTiter-Glo Luminescent cell viability assay; assay type: functional; conditions: time 4 day
[22] = system: LNCaP; experiment: Potency index, ratio of ARV-110 IC50 to test compound IC50 for antiproliferative activity against AR positive human LNCaP cells assessed inhibition of cell growth measured after 4 days by CellTiter-Glo Luminescent cell viability assay; assay type: functional; conditions: time 4 day
[23] = target: T2, Protein cereblon/Histone acetyltransferase p300; experiment: PROTAC activity at p300/CRBN in human 22Rv1 cells assessed as reduction in protein level at 100 nM incubated for 4 hrs by multiplexed quantitative proteomics analysis relative to control; assay type: cell-based; parameters: scale not given: the % may be the effect or the level left
[24] = system: LNCaP; experiment: Reduction in c-Myc gene expression in AR positive human LNCaP cells assessed as reduction in mRNA level measured after 6 hrs by qRT-PCT analysis relative to control; assay type: functional, cell-based; conditions: dose 0.1-1000 nM
[25] = system: CWR22R; experiment: Reduction in c-Myc gene expression in AR positive human 22Rv1 cells assessed as reduction in mRNA level measured after 6 hrs by qRT-PCT analysis relative to control; assay type: functional, cell-based; conditions: dose 0.1-1000 nM
[26] = Reduction in KLK3 gene expression in AR positive human VCaP cells assessed as reduction in mRNA level at 1 nM measured after 6 hrs by qRT-PCT analysis relative to control; assay type: functional
[27] = Reduction in c-Myc gene expression in AR positive human LNCaP cells assessed as reduction in mRNA level at 10 nM measured after 6 hrs by qRT-PCT analysis relative to control; assay type: functional
[28] = Reduction in c-Myc gene expression in AR positive human 22Rv1 cells assessed as reduction in mRNA level at 10 nM measured after 6 hrs by qRT-PCT analysis relative to control; assay type: functional, CWR22R
[29] = target: T1, Protein cereblon/CREB-binding protein; experiment: In vivo PROTAC activity at CBP/CRBN in human VCaP cells xenografted in SCID mouse assessed as reduction in CBP protein at 1 mg/kg, po measured after 24 hrs; assay type: functional, organism-based; parameters: scale not given: the % may be the effect or the level left
Target sequence in this assay (Q92793 2-2442 limits assumed): as the sequence (Q92793 2-2442 limits assumed) above
Target sequence in this assay (Q96SW2 whole entry partner): as the sequence (Q96SW2 whole entry partner) above

[30] = target: T1, Protein cereblon/CREB-binding protein; experiment: In vivo PROTAC activity at p300/CRBN in human VCaP cells xenografted in CB17 SCID mouse assessed as reduction in CBP protein at 1 mg/kg, po measured after 24 hrs; assay type: functional, organism-based; parameters: scale not given: the % may be the effect or the level left
Target sequence in this assay (Q92793 2-2442 limits assumed): as the sequence (Q92793 2-2442 limits assumed) above
Target sequence in this assay (Q96SW2 whole entry partner): as the sequence (Q96SW2 whole entry partner) above

[31] = Plasma concentration in CB17 SCID mouse xenografted with human VCaP cells at 1 mg/kg, po measured after 3 hrs by LC-MS/MS analysis; assay type: ADME, organism-based
[32] = Plasma concentration in CB17 SCID mouse xenografted with human VCaP cells at 3 mg/kg, po measured after 3 hrs by LC-MS/MS analysis; assay type: ADME, organism-based
[33] = Plasma concentration in CB17 SCID mouse xenografted with human VCaP cells at 3 mg/kg, po measured after 24 hrs by LC-MS/MS analysis; assay type: ADME, organism-based
[34] = system: VCaP; experiment: Antitumor activity against human VCaP cells xenografted in CB17 SCID mouse model assessed as tumor growth inhibition at 1 mg/kg, po qod scheduled 5 days in a week measured on day 63; assay type: functional; conditions: 1512 h, time 63 day, read-out: TGI
[35] = Toxicity in CB17 SCID mouse xenografted with human VCaP cells assessed as signs of toxicity at 0.3 to 1 mg/kg, po qd scheduled 5 days in a week measured on day 63; assay type: organism-based; conditions: in vivo, 120 h, dose 0.3-1 mg/kg, time 5 day

DC50 [1]: 0.3 nM
Emax [2]: > 95%
DC50 [3]: 0.2 nM
Activity [4]: 76%
Activity [5]: 98%
Activity [6]: 78%
Activity [7]: 100%
half-life [8]: 2.8 h
clearance [9]: 1.7 mL/min/kg
Cmax [10]: 2490 ng/mL
AUC at 24 h [11]: 15500 ng·h/mL
bioavailability [12]: 50%
Papp [13]: 2.3 10^-6 cm/s
DC50 [14]: 0.3 nM
DC50 [15]: 0.4 nM
Emax [16]: 95%
Emax [17]: 91%
IC50 [18]: 2 nM
Activity [23]: 79%
Activity [29]: > 95%
Activity [30]: > 95%
concentration at 3 h [31]: 95 ng/mL
concentration at 3 h [32]: 355 ng/mL
concentration at 24 h [33]: 21 ng/mL
SMILES: CC(=O)N1CCc2c(c(N3CCCc4cc(-c5cnn(C)c5)c(C(F)F)cc43)nn2[C@H]2CC[C@H](CN3CCN(c4ccc5c(c4)C(=O)N(C4CCC(=O)NC4=O)C5=O)CC3)CC2)C1 (stereo not given in full)
IC50 [19]: 1.2 nM
Ratio IC50 [20]: 100
Ratio IC50 [21]: 100
Ratio IC50 [22]: >50
inhibition [24]: Dose-Dependent Effect
inhibition [25]: Dose-Dependent Effect
inhibition at 0.001 µM [26]: 57%
inhibition at 0.01 µM [27]: > 95%
inhibition at 0.01 µM [28]: > 95%
inhibition in vivo at 1 mg/kg [34]: 71%
Activity [35]: Non-Toxic
